Data as given in patent US20250204541A1, “GAS PHASE TREATMENT OF PRODUCE” (priority 2022, published 2025).
“Also recorded” adds a separate entry of the source.

Tests used:
Assay type in all cases: in vivo
Botrytis cinerea (Bc) = assay: Antifungal activity of AITC vapor against Botrytis cinerea in strawberries; details: Example 17; suspended strawberries; coating agent 50 g/L dip; AITC 125 μL 30 minutes; by day 5
[1] = test system: Colletotrichum gloeosporioides (Cg); assay: Antifungal activity of vapor against Colletotrichum gloeosporioides in avocados; details: Example 22, 30 minutes vapor of 62.5-500 μL on filter paper disc, assessed on day 5
[2] = test system: Penicillium digitatum (Pd); assay: Antifungal activity of vapor against Penicillium digitatum in wounded, infected mandarins; details: for effect on Pd infection: airtight container with fan, 18 hours, then 6 days; for infected: 125 μL, 30 minutes
mandarins = assay: Visible appearance of vapor-treated mandarins; details: 72 hours vapor of 3 mL in a Petri dish
Procedure: Example 1. The antifungal activity of diallyl disulfide (DADS) vapor against Penicillium digitatum (Pd) was tested in mandarins. All samples were wounded by puncturing with a screw and infected by dispensing 1000 Pd spores suspended in 10 μL of water into each wound. The test groups consisted of mandarins that were: untreated; dipped in a solution of 1 g/L of imazalil; and exposed for 72 hours to the vapor of 3 mL of DADS in a Petri dish.
Example 2. The antifungal activity of allyl isothiocyanate (AITC) and DADS vapor was tested against Pd and Penicillium italicum (Pi) in mandarins. All samples were wounded by puncturing with a screw. Mandarins were infected by dispensing either 1000 Pd spores or 1000 Pi spores suspended in 10 μL into the wound. The test groups consisted of mandarins that were: uninfected and untreated; uninfected and treated by dipping in a solution of 1 g/L of imazalil; infected with Pd and untreated; infected with Pd and exposed to AITC; infected with Pd and exposed to DADS; infected with Pi and untreated; infected with Pi and exposed to AITC; and infected with Pi and exposed to DADS. Exposure to AITC or DADS consisted of exposing the mandarins for 72 hours to the vapor of 3 mL of the respective compound dispensed in a Petri dish. […]
Example 5. […] The test groups were then left at ambient temperature, high humidity, and assessed for Pd mold after 6 days. […]

C=CCN=C=S [AITC, allyl isothiocyanate]
reduction in incidence of mold versus the untreated test group (Botrytis cinerea (Bc)): over 80%
incidence of Cg mold [1]: reduced the incidence of Cg mold compared to the untreated samples, the samples treated with coating agent, and the prochloraz treated sample
effect on Pd infection at 50% of the minimum inhibitory concentration ([2]; 62.5 μL AITC vapor for 30 minutes, assessed after 6 days): tends to reduce the severity of infection, but not eliminate the incidence of infection
effect on Pd infection ([2]; 62.5 μL on filter paper disc): reduced the severity of infection relative to the untreated group
effect on Pd mold ([2]; 125 μL on filter paper, airtight container, 2 hour exposure, assessed after 6 days): substantially eliminated the mold
effect on Pd infection ([2]; 500 μL on filter paper disc): substantially prevented the growth mold
infected ([2]; treated 24 hours after infection, assessed after 6 days): 8.3%
infected ([2]; treated 48 hours after infection, assessed after 6 days): 25%
infected ([2]; treated 72 hours after infection, assessed after 6 days): 16.7%
infected ([2]; treated 96 hours after infection, assessed after 6 days): 81.6%
infected ([2]; treated immediately after infection (0 hours), assessed after 6 days): 58.3%

C=CCSSCC=C [DADS, diallyl disulfide]
visible appearance of treated fruit (mandarins): no visible degradation or discoloration; also recorded: No difference in appearance
